Assay: In vitro skin permeation profiles (permeation cell)
Type: in vitro ADME, human
Protocol: Comparison In Vitro Skin Permeation Profiles of Amanidine Prodrugs • System: in-vitro permeation cell (9 ml acceptor volume/1.539 cm^2 diffusion area, 32° C.) • Acceptor medium: phosphate buffer pH 5.5+0.1% NaN3 according to DAB 10 • Active ingredient: benzamidine, benzamidoxime (from Ex. 1) • Skin type: human full skin, ID 899 (belly person) • Vehicle: suspension in olive oil (2% by weight, 50 mg suspension per cell), applied to a circular nonwoven disk made of synthetic wool ([…] type I/20) and occlusively covered with a PSA film (silicone adhesive) as “over-plaster”.

permeated amount (0 h, human full skin, 2% by weight suspension in olive oil, acceptor phosphate buffer pH 5.5, 32° C.)	permeated amount (8 h, human full skin, 2% by weight suspension in olive oil, acceptor phosphate buffer pH 5.5, 32° C.)	permeated amount (24 h, human full skin, 2% by weight suspension in olive oil, acceptor phosphate buffer pH 5.5, 32° C.)	permeated amount (32 h, human full skin, 2% by weight suspension in olive oil, acceptor phosphate buffer pH 5.5, 32° C.)	permeated amount (48 h, human full skin, 2% by weight suspension in olive oil, acceptor phosphate buffer pH 5.5, 32° C.)	permeated amount (female, human, 0 h, 2 % by weight, pH 5.5)	permeated amount (female, human, 8 h, 2 % by weight, pH 5.5)	permeated amount (female, human, 24 h, 2 % by weight, pH 5.5)	permeated amount (female, human, 32 h, 2 % by weight, pH 5.5)	permeated amount (female, human, 48 h, 2 % by weight, pH 5.5)	SMILES	comparison of the permeated amounts of benzamidine and benzamidoxime
0	2.24	13.7	21.2	41.3	–	–	–	–	–	N=C(N)c1ccccc1 [Benzamidine, benzamidine, reference compound]	–
–	–	–	–	–	0	50.2	235	315	403	NC(=NO)c1ccccc1 [Benzamidinoxime, Benzamidoxime]	advantage of the benzamidoxime being clearly visible

Reference: patent publication US20110311593A1, “N-HYDROXYLATED AMIDINE-, GUANIDINE- AND/OR AMINOHYDRAZONE-TYPE PRODRUGS FOR APPLICATION ON THE SKIN” (priority 2009, published 2011)
